Each structure is given as a SMILES string.

Test [1] addresses Serine/threonine-protein kinase Chk1 (Homo sapiens) (UniProt O14757). The test is described as follows: Inhibition of CHK1 (unknown origin) at 0.164 uM relative to control.
In test [2] the target is Serine/threonine-protein kinase DCLK2 (Homo sapiens) (UniProt Q8N568). The test is described as follows: Inhibition of DCAMKL2 (unknown origin) at 0.164 uM relative to control.
Test [3] deals with Proto-oncogene tyrosine-protein kinase ROS (Homo sapiens) (UniProt P08922). The test is described as follows: Inhibition of ROS (unknown origin) at 0.164 uM relative to control.
Sequence of Proto-oncogene tyrosine-protein kinase ROS (Homo sapiens) (P08922 whole entry): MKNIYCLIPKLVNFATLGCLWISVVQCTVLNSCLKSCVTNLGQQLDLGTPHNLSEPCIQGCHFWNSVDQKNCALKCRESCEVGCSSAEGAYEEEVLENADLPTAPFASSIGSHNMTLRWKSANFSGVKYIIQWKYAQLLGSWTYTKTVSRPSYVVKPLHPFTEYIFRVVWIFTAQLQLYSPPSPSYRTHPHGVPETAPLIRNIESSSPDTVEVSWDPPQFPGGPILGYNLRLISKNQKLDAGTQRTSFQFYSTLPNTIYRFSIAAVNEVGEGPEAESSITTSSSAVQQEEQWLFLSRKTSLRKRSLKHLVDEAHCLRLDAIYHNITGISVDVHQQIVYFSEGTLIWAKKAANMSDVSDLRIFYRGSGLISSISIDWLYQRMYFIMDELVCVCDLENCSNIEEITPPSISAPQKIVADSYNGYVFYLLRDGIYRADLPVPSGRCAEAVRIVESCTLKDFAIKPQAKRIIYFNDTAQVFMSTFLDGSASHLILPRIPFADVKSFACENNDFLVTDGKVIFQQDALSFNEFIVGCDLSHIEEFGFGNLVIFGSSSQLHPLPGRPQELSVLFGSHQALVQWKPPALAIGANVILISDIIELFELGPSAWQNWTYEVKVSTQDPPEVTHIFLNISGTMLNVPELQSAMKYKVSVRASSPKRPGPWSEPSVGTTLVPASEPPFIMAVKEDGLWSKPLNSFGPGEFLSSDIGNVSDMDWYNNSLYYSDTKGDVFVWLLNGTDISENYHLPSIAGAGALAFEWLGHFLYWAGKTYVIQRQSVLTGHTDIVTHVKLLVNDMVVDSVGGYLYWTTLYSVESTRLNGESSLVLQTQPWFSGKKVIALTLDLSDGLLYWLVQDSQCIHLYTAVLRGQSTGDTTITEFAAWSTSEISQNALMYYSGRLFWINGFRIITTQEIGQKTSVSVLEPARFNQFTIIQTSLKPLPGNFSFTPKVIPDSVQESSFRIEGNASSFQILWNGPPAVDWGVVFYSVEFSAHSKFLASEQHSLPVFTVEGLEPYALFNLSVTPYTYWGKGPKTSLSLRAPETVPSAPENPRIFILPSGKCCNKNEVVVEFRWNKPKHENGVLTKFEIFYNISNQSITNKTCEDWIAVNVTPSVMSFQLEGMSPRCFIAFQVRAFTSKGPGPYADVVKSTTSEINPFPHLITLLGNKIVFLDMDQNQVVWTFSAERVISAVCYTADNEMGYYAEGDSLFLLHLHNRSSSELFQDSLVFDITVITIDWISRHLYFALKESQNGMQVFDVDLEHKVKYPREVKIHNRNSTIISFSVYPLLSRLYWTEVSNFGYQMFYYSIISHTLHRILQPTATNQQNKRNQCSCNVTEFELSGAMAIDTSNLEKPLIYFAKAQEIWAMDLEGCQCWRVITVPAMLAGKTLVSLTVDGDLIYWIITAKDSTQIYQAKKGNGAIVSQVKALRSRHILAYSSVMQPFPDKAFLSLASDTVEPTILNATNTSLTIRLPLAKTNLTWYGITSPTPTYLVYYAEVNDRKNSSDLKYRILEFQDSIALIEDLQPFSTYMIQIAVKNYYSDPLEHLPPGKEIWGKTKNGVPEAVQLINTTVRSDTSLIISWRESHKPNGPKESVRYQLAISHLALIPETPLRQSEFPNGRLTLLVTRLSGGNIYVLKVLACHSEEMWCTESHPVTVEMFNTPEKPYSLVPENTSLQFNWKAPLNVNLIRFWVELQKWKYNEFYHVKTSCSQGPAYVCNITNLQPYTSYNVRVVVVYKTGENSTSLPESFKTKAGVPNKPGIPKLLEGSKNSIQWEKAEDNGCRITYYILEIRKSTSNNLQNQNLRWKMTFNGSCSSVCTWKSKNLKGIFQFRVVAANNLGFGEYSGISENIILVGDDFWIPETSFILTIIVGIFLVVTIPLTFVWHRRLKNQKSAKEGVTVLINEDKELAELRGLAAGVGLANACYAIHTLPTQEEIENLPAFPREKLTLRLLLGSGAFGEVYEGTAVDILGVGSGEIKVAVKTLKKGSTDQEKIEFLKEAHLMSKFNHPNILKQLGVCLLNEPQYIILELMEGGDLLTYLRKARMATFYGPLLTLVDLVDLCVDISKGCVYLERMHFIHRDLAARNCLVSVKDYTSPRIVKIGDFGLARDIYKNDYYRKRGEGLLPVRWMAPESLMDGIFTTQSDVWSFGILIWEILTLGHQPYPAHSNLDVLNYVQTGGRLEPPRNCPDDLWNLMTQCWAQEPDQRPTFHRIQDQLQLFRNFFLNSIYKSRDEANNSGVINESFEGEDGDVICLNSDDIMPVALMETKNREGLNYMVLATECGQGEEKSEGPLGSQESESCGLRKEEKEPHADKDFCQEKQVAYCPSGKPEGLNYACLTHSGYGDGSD
Test [4] has as its target Ephrin type-B receptor 3 (Homo sapiens) (UniProt P54753). The test is described as follows: Inhibition of EPHB3 (unknown origin) at 0.164 uM relative to control.
The target in test [5] is PAS domain-containing serine/threonine-protein kinase (Homo sapiens) (UniProt Q96RG2). The test is described as follows: Inhibition of PASK (unknown origin) at 0.164 uM relative to control.
Sequence of PAS domain-containing serine/threonine-protein kinase (Homo sapiens) (Q96RG2 whole entry, the tested form may be a part): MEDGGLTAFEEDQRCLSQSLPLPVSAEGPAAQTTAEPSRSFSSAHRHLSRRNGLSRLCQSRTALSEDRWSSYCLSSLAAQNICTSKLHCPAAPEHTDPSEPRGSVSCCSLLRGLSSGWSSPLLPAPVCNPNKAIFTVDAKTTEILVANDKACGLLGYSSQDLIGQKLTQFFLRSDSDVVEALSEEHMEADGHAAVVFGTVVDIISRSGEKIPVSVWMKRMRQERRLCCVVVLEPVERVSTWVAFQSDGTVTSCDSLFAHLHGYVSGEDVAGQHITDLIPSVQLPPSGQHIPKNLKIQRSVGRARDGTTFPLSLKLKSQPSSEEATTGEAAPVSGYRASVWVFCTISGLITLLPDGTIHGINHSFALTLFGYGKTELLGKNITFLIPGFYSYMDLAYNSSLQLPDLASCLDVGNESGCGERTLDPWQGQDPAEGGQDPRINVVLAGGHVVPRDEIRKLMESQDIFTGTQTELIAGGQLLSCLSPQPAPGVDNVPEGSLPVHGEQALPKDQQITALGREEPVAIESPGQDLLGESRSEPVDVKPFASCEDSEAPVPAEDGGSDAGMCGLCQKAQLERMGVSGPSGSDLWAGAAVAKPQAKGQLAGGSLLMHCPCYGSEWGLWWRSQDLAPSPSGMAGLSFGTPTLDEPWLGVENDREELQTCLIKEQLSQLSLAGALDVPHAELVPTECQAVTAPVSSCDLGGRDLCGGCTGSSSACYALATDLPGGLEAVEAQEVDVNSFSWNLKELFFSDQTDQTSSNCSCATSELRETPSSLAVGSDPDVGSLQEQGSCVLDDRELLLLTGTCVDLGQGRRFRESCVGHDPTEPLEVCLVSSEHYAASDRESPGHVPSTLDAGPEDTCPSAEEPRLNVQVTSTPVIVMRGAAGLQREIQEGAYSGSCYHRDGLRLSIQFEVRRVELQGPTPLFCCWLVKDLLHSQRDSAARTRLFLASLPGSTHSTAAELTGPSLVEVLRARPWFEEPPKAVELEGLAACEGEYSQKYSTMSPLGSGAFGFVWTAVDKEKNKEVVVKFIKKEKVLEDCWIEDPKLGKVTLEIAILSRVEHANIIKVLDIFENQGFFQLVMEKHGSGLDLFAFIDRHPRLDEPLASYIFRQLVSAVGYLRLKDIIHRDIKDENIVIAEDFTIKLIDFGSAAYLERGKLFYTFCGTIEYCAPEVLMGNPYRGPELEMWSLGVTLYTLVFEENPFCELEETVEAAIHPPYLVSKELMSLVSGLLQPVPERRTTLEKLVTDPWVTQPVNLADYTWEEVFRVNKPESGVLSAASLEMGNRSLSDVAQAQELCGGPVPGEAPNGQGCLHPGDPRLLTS
In test [6] the target is Serine/threonine-protein kinase Nek1 (Homo sapiens) (UniProt Q96PY6). The test is described as follows: Inhibition of NEK1 (unknown origin) at 0.164 uM relative to control.
For test [7], the target named is STE20-like serine/threonine-protein kinase (Homo sapiens) (UniProt Q9H2G2). The test is described as follows: Inhibition of SLK (unknown origin) at 0.164 uM relative to control.
In test [8] the target is T1, Testis-specific serine/threonine-protein kinase 1 (Homo sapiens) (UniProt Q9BXA7).
T1 sequence (whole entry): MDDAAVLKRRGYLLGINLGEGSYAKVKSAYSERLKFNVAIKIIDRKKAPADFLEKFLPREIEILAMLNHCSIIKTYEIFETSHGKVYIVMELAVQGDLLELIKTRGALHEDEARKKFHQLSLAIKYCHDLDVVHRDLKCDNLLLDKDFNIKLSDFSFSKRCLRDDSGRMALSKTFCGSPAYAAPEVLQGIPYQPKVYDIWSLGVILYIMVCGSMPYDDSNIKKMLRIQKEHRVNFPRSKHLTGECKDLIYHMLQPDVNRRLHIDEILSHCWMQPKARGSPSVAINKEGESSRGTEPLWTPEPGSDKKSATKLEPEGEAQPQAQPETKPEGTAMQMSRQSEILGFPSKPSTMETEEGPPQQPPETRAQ
The test is described as follows: Inhibition of TSSK1 (unknown origin) at 0.164 uM relative to control.

Test [9] has as its target T2, MAP kinase-activated protein kinase 5 (Homo sapiens) (UniProt Q8IW41).
T2 sequence (whole entry): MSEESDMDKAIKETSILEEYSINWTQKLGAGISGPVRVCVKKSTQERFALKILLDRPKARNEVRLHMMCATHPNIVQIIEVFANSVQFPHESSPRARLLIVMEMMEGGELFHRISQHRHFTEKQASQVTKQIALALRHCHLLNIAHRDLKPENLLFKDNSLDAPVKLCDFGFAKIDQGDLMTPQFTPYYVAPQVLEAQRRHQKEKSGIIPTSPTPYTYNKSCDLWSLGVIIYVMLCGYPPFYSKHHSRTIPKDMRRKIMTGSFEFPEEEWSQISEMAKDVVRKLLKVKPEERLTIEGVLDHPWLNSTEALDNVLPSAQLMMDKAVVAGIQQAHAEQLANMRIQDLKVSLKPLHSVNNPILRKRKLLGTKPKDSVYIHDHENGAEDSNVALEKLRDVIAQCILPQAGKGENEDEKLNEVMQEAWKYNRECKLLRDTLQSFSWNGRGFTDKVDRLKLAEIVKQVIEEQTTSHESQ
The test is described as follows: Inhibition of PRAK (unknown origin) at 0.45 uM relative to control.

In test [10] the target is T3, Protein kinase C iota type (Homo sapiens) (UniProt P41743).
T3 sequence (whole entry): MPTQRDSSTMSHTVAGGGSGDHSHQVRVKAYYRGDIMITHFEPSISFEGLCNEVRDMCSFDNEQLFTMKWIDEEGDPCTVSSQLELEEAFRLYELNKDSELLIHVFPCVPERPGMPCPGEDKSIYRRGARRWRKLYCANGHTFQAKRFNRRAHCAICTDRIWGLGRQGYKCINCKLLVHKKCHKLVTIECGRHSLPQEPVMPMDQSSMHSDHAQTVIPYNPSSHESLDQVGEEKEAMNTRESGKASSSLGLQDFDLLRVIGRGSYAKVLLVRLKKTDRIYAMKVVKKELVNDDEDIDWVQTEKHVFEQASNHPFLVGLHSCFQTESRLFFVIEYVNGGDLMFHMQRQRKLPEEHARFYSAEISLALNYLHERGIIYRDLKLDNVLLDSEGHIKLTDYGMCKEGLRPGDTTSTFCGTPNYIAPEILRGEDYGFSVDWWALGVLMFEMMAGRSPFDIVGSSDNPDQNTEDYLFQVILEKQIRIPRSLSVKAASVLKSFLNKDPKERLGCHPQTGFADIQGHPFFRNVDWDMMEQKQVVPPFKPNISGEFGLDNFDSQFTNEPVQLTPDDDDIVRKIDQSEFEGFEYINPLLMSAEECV
The test is described as follows: Inhibition of PKC-iota (unknown origin) at 0.45 uM relative to control.

The target in test [11] is PAS domain-containing serine/threonine-protein kinase (Homo sapiens) (UniProt Q96RG2). The test is described as follows: Inhibition of PASK (unknown origin) at 0.45 uM relative to control.
For test [12], the target named is MAP kinase-activated protein kinase 2 (Homo sapiens) (UniProt P49137). The test is described as follows: Inhibition of MAPKAPK2 (unknown origin) at 0.19 uM relative to control.
In test [13] the target is Serine/threonine-protein kinase MARK1 (Homo sapiens) (UniProt Q9P0L2). The test is described as follows: Inhibition of MARK1 (unknown origin) at 0.19 uM relative to control.
In test [14] the target is Serine/threonine-protein kinase pim-2 (Homo sapiens) (UniProt Q9P1W9). The test is described as follows: Inhibition of PIM2 (unknown origin) at 0.19 uM relative to control.
For test [15], the target named is Tyrosine-protein kinase Tec (Homo sapiens) (UniProt P42680). The test is described as follows: Inhibition of TEC (unknown origin) at 0.19 uM relative to control.
Test [16] addresses cAMP-dependent protein kinase catalytic subunit PRKX (Homo sapiens) (UniProt P51817). The test is described as follows: Inhibition of PRKX (unknown origin) at 0.19 uM relative to control.
Test [17] has as its target Serine/threonine-protein kinase 24 (Homo sapiens) (UniProt Q9Y6E0). The test is described as follows: Inhibition of MST3 (unknown origin) at 0.19 uM relative to control.
Test [18] addresses Serine/threonine-protein kinase pim-3 (Homo sapiens) (UniProt Q86V86). The test is described as follows: Inhibition of PIM3 (unknown origin) at 0.19 uM relative to control.
Test [19] addresses Macrophage-stimulating protein receptor (Homo sapiens) (UniProt Q04912). The test is described as follows: Inhibition of MST1R (unknown origin) at 0.19 uM relative to control.

Sequence of cAMP-dependent protein kinase catalytic subunit PRKX (Homo sapiens) (P51817 whole entry): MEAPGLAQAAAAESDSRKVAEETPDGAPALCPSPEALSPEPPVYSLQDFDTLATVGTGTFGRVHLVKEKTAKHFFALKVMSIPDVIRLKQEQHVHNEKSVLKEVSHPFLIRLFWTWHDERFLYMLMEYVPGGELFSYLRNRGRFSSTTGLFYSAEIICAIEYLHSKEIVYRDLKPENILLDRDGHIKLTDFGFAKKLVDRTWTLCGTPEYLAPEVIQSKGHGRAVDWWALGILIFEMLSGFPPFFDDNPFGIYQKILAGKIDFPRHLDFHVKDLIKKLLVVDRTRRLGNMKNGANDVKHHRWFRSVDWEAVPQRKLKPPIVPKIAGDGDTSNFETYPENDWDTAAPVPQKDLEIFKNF
Sequence of Serine/threonine-protein kinase Chk1 (Homo sapiens) (O14757 whole entry): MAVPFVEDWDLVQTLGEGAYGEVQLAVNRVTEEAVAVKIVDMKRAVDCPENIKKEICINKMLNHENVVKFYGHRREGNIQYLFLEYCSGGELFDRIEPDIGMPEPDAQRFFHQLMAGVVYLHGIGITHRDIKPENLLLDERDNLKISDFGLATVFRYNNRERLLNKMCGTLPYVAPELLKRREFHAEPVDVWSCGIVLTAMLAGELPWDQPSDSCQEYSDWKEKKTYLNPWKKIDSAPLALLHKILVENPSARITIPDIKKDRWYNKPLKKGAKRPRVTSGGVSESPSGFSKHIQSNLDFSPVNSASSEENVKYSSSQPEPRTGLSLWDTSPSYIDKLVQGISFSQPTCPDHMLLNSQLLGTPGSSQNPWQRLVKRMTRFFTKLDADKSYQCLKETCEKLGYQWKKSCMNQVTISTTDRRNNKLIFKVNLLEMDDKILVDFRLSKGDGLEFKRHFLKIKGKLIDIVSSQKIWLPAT

For the compound `COC(=O)Nc1cc(-c2c(C3CC3)n[nH]c2C)cc2[nH]ncc12`, the inhibition (commonly the change of the read-out against control, counted positive when it falls) was 5.3% in test [1]; -1.3% in test [2]; 4% in [3]; 0.7% in test [4]; -3% in [5]; -1.3% in test [6]. For the same compound, the inhibition was 4.7% in test [7] and -4.3% in [8].

As to `Cc1n[nH]c(C)c1-c1ccc2c(NC(=O)c3ccc(N4CCN(C)CC4)cc3)n[nH]c2c1`, the inhibition in test [9] is -1.7%; in [10] it was -6.7%; in [11] it was -2%.

Turning to `Cc1[nH]nc(C2CC2)c1-c1ccc2c(-c3ccc(N4CCN(C)CC4)nc3)n[nH]c2c1`, the inhibition is 1.7% in test [12]; -5.3% in test [13]; 2% in [14]; 2% in test [15]; 2.3% in test [16]; 33% in test [17]. Further, the results for the inhibition in test [18] and in [19] were -3.7% and -4.3%, respectively.
